Data as given in US20250101003A1, “SPIROCYCLIC CAV2.3 ANTAGONISTS” (LARIO THERAPEUTICS LIMITED, priority 2021, published 2025).

How the values were obtained:
Cav2.3 [1] = molecular target: T1, Cav2.3 (Homo sapiens, UniProt Q15878); assay: Human Cav2.3 channel calcium-influx assay; assay type: cell-based; details: HEK-293 T-Rex/Kir2.1/Cav2.3e-β4-α2δ1 cells, Fluo8 fluorescence, without pluronic acid; read-out: Cav2.3 (pIC50) (converted)
How it was run: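 Doxycycline-induced HEK-293 T-Rex/Kir2.1 clone stably expressing Cav2.3e with β4-α2δ1, loaded with Fluo8 NW; compounds (8 points from 30 μM, half-log, 0.3% DMSO) preincubated 3 min at RT. Depolarized with 20 mM KCl/2 mM CaCl2; peak-minus-baseline fluorescence over 130 s normalized to neutral and inhibitor controls as % activity.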
Target sequence in this assay (Q15878 1-747 limits assumed): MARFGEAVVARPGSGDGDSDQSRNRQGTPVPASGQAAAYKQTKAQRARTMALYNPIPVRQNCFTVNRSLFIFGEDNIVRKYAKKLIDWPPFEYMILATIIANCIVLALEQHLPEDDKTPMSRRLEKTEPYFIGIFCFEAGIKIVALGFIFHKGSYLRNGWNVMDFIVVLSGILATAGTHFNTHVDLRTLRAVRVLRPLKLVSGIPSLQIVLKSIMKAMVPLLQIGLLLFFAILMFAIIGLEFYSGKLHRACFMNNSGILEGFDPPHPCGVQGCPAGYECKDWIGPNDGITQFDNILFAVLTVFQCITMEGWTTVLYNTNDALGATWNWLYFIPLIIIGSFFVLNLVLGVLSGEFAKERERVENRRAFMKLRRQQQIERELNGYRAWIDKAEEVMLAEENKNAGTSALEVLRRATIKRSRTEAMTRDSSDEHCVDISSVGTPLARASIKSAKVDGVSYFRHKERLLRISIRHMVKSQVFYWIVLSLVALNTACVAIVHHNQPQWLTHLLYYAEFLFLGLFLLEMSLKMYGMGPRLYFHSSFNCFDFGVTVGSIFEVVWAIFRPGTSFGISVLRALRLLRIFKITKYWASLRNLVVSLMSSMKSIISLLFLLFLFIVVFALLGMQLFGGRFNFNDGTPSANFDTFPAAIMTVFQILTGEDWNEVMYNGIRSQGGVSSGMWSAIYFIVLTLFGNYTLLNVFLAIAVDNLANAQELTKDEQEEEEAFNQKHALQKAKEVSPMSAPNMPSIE
Target sequence in this assay (Q15878 1126-2313 limits assumed): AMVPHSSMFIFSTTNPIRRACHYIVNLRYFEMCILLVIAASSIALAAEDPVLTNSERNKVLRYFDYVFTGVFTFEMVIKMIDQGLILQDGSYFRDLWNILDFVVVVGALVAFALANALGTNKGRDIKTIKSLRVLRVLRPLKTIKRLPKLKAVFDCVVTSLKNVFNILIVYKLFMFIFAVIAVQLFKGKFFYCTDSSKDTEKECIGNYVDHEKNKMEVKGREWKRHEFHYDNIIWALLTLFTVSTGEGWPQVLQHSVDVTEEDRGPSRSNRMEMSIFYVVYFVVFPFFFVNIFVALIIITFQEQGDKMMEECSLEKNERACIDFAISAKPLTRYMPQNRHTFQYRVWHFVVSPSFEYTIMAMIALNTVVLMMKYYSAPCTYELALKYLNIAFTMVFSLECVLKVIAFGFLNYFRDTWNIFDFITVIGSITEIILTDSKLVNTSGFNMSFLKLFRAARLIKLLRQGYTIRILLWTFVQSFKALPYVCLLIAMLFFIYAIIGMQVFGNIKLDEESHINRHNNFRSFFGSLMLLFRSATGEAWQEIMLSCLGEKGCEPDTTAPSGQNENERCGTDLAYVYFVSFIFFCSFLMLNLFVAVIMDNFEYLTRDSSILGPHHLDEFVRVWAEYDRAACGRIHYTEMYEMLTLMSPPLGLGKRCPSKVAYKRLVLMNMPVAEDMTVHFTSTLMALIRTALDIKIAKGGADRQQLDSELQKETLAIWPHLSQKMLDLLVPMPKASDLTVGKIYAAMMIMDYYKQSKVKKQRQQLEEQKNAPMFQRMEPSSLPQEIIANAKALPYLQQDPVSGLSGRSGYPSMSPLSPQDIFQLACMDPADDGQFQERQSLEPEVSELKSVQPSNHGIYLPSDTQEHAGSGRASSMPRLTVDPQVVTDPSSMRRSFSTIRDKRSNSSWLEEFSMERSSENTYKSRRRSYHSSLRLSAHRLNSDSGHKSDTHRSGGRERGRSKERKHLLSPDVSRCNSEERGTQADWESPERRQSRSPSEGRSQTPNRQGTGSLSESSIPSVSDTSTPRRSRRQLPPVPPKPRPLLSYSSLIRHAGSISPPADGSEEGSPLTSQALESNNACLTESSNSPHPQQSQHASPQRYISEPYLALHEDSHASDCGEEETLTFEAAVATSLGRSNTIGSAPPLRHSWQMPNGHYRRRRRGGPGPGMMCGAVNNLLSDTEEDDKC

Cav2.3 [2] = molecular target: T1, Cav2.3; assay: Whole-cell patch clamp assay (QPatch 16X); assay type: cell-based; details: whole-cell voltage clamp, HEK-293 T-Rex/Kir2.1/Cav2.3e-β4-α2δ1 cells, room temperature; read-out: Cav2.3 (pIC50) (converted)
Procedure: HEK-293 T-Rex/Kir2.1/Cav2.3e-β4-α2δ1 cells were seeded 96 hours before experiment and doxycycline at 0.2 μg/mL was added 24 hours before experiment. Just before the experiments cells were washed twice with D-PBS w/o Ca2+/Mg2+ and gently detached from the flask with Detachin. Cells were then re-suspended in the suspension solution (25 mL EX-CELL ACF CHO medium; 0.25 mL of 100× Penicillin/Streptomycin) and placed on the Automated Patch-clamp platform (QPatch 16X).
Standard whole-cell voltage clamp experiments were performed at room temperature using the single hole technology and the following intracellular and extracellular solutions (ICS and ECS, respectively) were used. ICS (mM): CsF 60, CsCl 50, NaCl 10, EGTA 20, BAPTA 5, HEPES 10, NaGTP 0.3, MgATP 5 (pH 7.2; ECS (mM): NMDG-Cl 120, BaCl2 20, HEPES 10, EGTA 7 (pH 7.4). After establishment of the seal and the passage in the whole-cell configuration, the Cav2.3 dependent current was evoked by challenging the cells with the following voltage protocol: the plasma membrane was held at −80 mV then a 50 ms-long depolarizing pulse at 0 mV, followed by a 50 ms-long hyperpolarizing pulse at −100 mV were applied and finally the plasma membrane was held back to −80 mV. This voltage protocol was applied every 10 seconds. Cav2.3 dependent current was first measured in control condition (vehicle, 0.1% DMSO), in the presence of increasing concentration of the compound under investigation and finally SNX 482 was added to fully block any R-type Cav2.3 dependent current.
For data collection, the Sophion proprietary software was used while the analysis was performed off-line using Excel and GraphPad Prism. The inward current (Area Under Curve) measured during each depolarizing pulse was normalized to cell membrane capacitance (Cm) to obtain the average inward current density in each condition (control, compound under investigation and SNX 482). Then, the inhibitory effect of the compound under investigation was evaluated as % of the remaining inward current, normalized to the internal control. […] All data were expressed as mean±S.E
Target sequence in this assay (Q15878 1-747 limits assumed): as the sequence (Q15878 1-747 limits assumed) above
Target sequence in this assay (Q15878 1126-1966 limits assumed): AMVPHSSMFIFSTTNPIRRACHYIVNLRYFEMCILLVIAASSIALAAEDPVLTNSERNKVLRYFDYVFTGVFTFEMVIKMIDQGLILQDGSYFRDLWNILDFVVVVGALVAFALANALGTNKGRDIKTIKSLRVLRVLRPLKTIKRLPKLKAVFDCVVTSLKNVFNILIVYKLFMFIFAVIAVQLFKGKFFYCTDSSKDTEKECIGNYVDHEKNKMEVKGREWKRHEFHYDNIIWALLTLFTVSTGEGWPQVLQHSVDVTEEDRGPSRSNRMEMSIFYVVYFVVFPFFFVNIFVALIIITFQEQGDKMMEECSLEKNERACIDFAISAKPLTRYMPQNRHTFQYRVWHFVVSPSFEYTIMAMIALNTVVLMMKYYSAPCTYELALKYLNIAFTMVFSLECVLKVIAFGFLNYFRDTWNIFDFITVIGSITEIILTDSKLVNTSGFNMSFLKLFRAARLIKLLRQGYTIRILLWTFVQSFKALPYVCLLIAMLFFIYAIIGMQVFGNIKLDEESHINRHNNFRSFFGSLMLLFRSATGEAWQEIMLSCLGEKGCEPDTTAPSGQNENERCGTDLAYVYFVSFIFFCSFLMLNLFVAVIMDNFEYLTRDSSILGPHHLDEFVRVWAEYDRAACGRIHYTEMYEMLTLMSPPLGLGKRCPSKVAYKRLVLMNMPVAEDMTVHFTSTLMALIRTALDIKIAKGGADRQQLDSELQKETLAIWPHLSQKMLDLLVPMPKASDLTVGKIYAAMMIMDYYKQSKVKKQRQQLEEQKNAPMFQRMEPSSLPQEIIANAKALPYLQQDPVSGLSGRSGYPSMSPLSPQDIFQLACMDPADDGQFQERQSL

Row | Structure (SMILES) | IC50 (Cav2.3 [1]) [nM] | IC50 (Cav2.3 [2]) [nM]
1 | CCOC(=O)N1CCc2ccc(S(=O)(=O)N3CC4(CCC4)CC3C)cc2C1 (single isomer, unassigned) [Example 23, Ethyl 7-((7-methyl-6-azaspiro[3.4]octan-6-yl)sulfonyl)-3,4-dihydroisoquinoline-2(1H)-carboxylate] | 501 | 832
2 | CC1CC2(CCC2)CN1S(=O)(=O)c1ccc2c(c1)CN(C(=O)c1ccccc1)CC2 (single isomer, unassigned) [Example 27, (7-((7-Methyl-6-azaspiro[3.4]octan-6-yl)sulfonyl)-3,4-dihydroisoquinolin-2(1H)-yl)(phenyl)methanone] | 851 | 832
3 | CC1CC2(CCC2)CN1S(=O)(=O)c1ccc2c(c1)CN(C(=O)c1ccccc1)CC2 (single isomer, unassigned) [Example 28, (7-((7-methyl-6-azaspiro[3.4]octan-6-yl)sulfonyl)-3,4-dihydroisoquinolin-2(1H)-yl)(phenyl)methanone] | 1510 | 1700
4 | CCC1CC2(CCC2)CN1S(=O)(=O)c1ccc2nc(C)sc2c1 (stereo not shown) [Example 1, 6-((7-Ethyl-6-azaspiro[3.4]octan-6-yl)sulfonyl)-2-methylbenzo[d]thiazole] | 1410 | 2820
5 | CC1CC2(CCC2)CN1S(=O)(=O)c1ccc2c(c1)CN(C(=O)Cc1ccccc1)CC2 (stereo not shown) [Example 21, 1-(7-((7-Methyl-6-azaspiro[3.4]octan-6-yl)sulfonyl)-3,4-dihydroisoquinolin-2(1H)-yl)-2-phenylethan-1-one] | 955 | 933
6 | CCOC(=O)N1CCc2ccc(S(=O)(=O)N3CC4(CCC4)CC3C)cc2C1 (stereo not shown) [Example 22, Ethyl 7-((7-methyl-6-azaspiro[3.4]octan-6-yl)sulfonyl)-3,4-dihydroisoquinoline-2(1H)-carboxylate] | 741 | 759
7 | CC1CC2(CCC2)CN1S(=O)(=O)c1ccc2c(c1)CN(C(=O)c1ccccc1)CC2 (stereo not shown) [Example 26, (7-((7-Methyl-6-azaspiro[3.4]octan-6-yl)sulfonyl)-3,4-dihydroisoquinolin-2(1H)-yl)(phenyl)methanone] | 1100 | 525
8 | CC(C)C(=O)N1CCc2ccc(S(=O)(=O)N3CC4(CCC4)CC3C)cc2C1 (stereo not shown) [Example 30, 2-Methyl-1-(7-((7-methyl-6-azaspiro[3.4]octan-6-yl)sulfonyl)-3,4-dihydroisoquinolin-2(1H)-yl)propan-1-one] | 912 | 1700

The next lines start with the values.

Row | IC50 (Cav2.3 [1]) [nM] | IC50 (Cav2.3 [2]) [nM] | Structure (SMILES)
9 | 646 | 4070 | CC(C)C(=O)N1CCc2ccc(S(=O)(=O)N3CC4(CCC4)CC3C)cc2C1 (single isomer, unassigned) [Example 31, 2-Methyl-1-(7-((7-methyl-6-azaspiro[3.4]octan-6-yl)sulfonyl)-3,4-dihydroisoquinolin-2(1H)-yl)propan-1-one]
10 | 1580 | 2340 | CC(C)C(=O)N1CCc2ccc(S(=O)(=O)N3CC4(CCC4)CC3C)cc2C1 (single isomer, unassigned) [Example 32, 2-methyl-1-(7-((7-methyl-6-azaspiro[3.4]octan-6-yl)sulfonyl)-3,4-dihydroisoquinolin-2(1H)-yl)propan-1-one]
11 | 1170 | 1580 | CCC1CC2(CCC2)CN1S(=O)(=O)c1cccs1 (single isomer, unassigned) [Example 71, 7-ethyl-6-(thiophen-2-ylsulfonyl)-6-azaspiro[3.4]octane]
12 | 1410 | 3720 | CC1CC2(CCC2)CN1S(=O)(=O)c1cccs1 (single isomer, unassigned) [Example 104, 7-methyl-6-(thiophen-2-ylsulfonyl)-6-azaspiro[3.4]octane]
13 | 1860 | 2820 | CCC1CC2(CCC2)CN1S(=O)(=O)c1ccc2c(c1)CN(C(=O)C(F)(F)F)CC2 (stereo not shown) [Example 33, 1-(7-((7-Ethyl-6-azaspiro[3.4]octan-6-yl)sulfonyl)-3,4-dihydroisoquinolin-2(1H)-yl)-2,2,2-trifluoroethan-1-one]
14 | 708 | 1170 | CC(C)C(=O)N1CCc2ccc(S(=O)(=O)N3CC4(CCCC4)CC3C)cc2C1 (stereo not shown) [Example 100, 2-Methyl-1-(7-((3-methyl-2-azaspiro[4.4]nonan-2-yl)sulfonyl)-3,4-dihydroisoquinolin-2(1H)-yl)propan-1-one]
